Experimental data published in patent US20180022780A1, “STABILIZATION ADRENOMEDULLIN DERIVATIVES AND USE THEREOF” (priority 2014, published 2018).
pEC50: −log10 of the molar value. Numbered stars: 1 amine (or outer) side, 2 acyl side, 3 side chain; on linkers, the order of the positions; unused ones are H or OH. Bridge positions count the residues as written; N and C are the ends. Square brackets hold non-standard residues; d marks the D form. Peptide text beside a SMILES is read from it. * marks the point of attachment. Abu(4-yl) = O=C([C@H](CC[*:3])N[*:1])[*:2]; Palmitoyl = CCCCCCCCCCCCCCCC(=O)*; Orn = NCCC[C@H](N)C(=O)O; Dab = NCC[C@H](N)C(=O)O

Biological target: T1, CLR fused to EYFP and RAMP2 fused to ECFP (Homo sapiens, UniProt O60895+Q16602)
T1 construct: EYFP; ECFP; expressed in transfected cells; host or cells: HEK-293 cells, transient co-transfection
Experiment: cAMP assay (CRE luciferase reporter, HEK-293 cells transiently co-transfected with CLR and RAMP2)
Format: cell-based
Settings: Table 2, cAMP assay; HEK-293, CLR/RAMP2, CRE luciferase, 3 h stimulation, normalized to [G^14]ADM(14-52)
Description: HEK-293 cells (human embryonic kidney cells) were cultured in Ham's F-12/DMEM (1/1; v/v) containing 15% FCS under humidified atmosphere at 37° C. and 5% CO2 in 75 cm^2 cell culture flasks.
Cells were cultured in 75 cm^2 flasks to 70-80% confluency. 45 μl Metafectene® Pro was diluted in 900 μl Ham's F-12/DMEM (1/1; v/v) and incubated for 20 min at room temperature. 9000 ng plasmid containing DNA of CLR fused to EYFP and 3000 ng plasmid containing DNA of RAMP2 fused to ECFP were dissolved in 900 μl Ham's F-12/DMEM (1/1; v/v). The plasmid solution was mixed with the Metafectene® Pro solution and incubated for 25 min at room temperature. Medium was removed from the cells and replaced by 6 ml Ham's F-12/DMEM (1/1; v/v) containing 15% FCS. After addition of transfection solution the cells were incubated for 3 h under humidified atmosphere at 37° C. and 5% CO2.
For the second transfection 45 μl Metafectene® Pro was diluted in 900 μl Ham's F-12/DMEM (1/1; v/v) and incubated for 20 min at room temperature. 12000 ng of pGL4.29[luc2P/CRE/Hygro] plasmid containing DNA for the luciferase reporter gene luc2P (with CRE promotor region) were dissolved in 900 μl Ham's F-12/DMEM (1/1; v/v). The plasmid solution was mixed with the Metafectene® Pro solution and incubated for 25 min at room temperature. Medium was removed from the cells and replaced by 6 ml Ham's F-12/DMEM (1/1; v/v) containing 15% FCS. After addition of transfection solution the cells were incubated under humidified atmosphere at 37° C. and 5% CO2 over night.
For the coating of 96-well-plates 50 μl of a Poly-D-Lysine solution (1 ml stock solution of Poly-D-Lysin-hydrobromid/10 ml DPBS) were pipetted in each well and incubated for 40 min. After removal of the Poly-D-Lysine each well was washed with 50 μl DPBS. Transiently transfected cells were detached from the cell culture flask by removal of the medium, twofold washing with 5 m1 DPBS and resuspending in 13 ml Ham's F-12/DMEM (1/1; v/v) containing 15% FCS. 90000 to 120000 cells in 150 μl Ham's F-12/DMEM (1/1; v/v) containing 15% FCS were seeded per well and the plates were incubated under humidified atmosphere at 37° C. and 5% CO2 over night.
For each ligand a serial dilution giving eight different concentrations was prepared using Ham's F-12/DMEM (1/1; v/v). Before stimulation the medium on the cells was replaced by 100 μl Ham's F-12/DMEM (1/1; v/v) and the plates were incubated for 1 h under humidified atmosphere at 37° C. and 5% CO2. For stimulation the medium was removed again and the cells were incubated for 3 h in 80 μl of ligand-solution under humidified atmosphere at 37° C. and 5% CO2. In addition 80 μl of a 5 μM forskolin solution (in Ham's F-12/DMEM (1/1; v/v)) was used as a positive control and 80 μl of Ham's F-12/DMEM (1/1; v/v) as a negative control. Each concentration and the controls were tested as triplicates.
After 3 h of stimulation, the solutions were removed and the cells were washed with 50 μl of Ham's F-12/DMEM (1/1; v/v) per well. After 10 min incubation in 30 μl of Ham's F-12/DMEM (1/1; v/v) at room temperature, 30 μl of luciferase-solution (ONE-Glo™ Luciferase Assay System) was added and the luminescence was directly measured using an Infinite M200 (Tecan).
Data analysis of the luminescence measurement was carried out with GraphPad Prism 5. Therefore the measured luminescence values of each plate were first corrected on the base of the respective average of forskolin stimulation. Afterwards they were normalized to [G^14]ADM(14-52) which was used as standard peptide in every assay. After correction and normalization data was analysed using non-linear regression giving dose-response curves for each tested ligand.

T1 sequence (Q16602 23-461): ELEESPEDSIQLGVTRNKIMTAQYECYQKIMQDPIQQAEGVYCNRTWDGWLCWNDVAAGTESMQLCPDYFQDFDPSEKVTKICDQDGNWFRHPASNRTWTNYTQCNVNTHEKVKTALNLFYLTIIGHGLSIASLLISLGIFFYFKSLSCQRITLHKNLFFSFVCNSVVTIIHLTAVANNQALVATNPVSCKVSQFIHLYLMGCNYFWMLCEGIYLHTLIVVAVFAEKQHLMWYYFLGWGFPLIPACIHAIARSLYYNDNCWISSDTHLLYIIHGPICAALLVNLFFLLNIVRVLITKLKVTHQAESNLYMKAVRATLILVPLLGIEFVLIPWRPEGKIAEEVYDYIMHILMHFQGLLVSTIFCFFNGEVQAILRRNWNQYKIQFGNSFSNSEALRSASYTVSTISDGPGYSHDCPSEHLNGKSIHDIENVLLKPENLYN
T1 sequence (O60895 43-175): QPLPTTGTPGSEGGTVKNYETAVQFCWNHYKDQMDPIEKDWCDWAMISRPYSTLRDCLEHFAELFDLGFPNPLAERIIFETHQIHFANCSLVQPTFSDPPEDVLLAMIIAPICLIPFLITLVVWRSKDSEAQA

SMILES	pEC50
CC[C@H](C)[C@H](NC(=O)[C@H](CCC(N)=O)NC(=O)[C@H](Cc1c[nH]cn1)NC(=O)[C@H](C)NC(=O)[C@H](CC(C)C)NC(=O)[C@H](CCCCN)NC(=O)[C@H](CCC(N)=O)NC(=O)[C@@H](NC(=O)[C@@H](NC(=O)[C@@H]1CCNC(=O)CC[C@H](NC(=O)CNC(=O)CN)C(=O)N[C@@H](CCCNC(=N)N)C(=O)N[C@@H](Cc2ccccc2)C(=O)NCC(=O)N[C@@H]([C@@H](C)O)C(=O)N1)[C@@H](C)O)C(C)C)C(=O)N[C@@H](Cc1ccc(O)cc1)C(=O)N[C@@H](CCC(N)=O)C(=O)N[C@@H](Cc1ccccc1)C(=O)N[C@H](C(=O)N[C@@H](CC(=O)O)C(=O)N[C@@H](CCCCN)C(=O)N[C@@H](CC(=O)O)C(=O)N[C@@H](CCCCN)C(=O)N[C@@H](CC(=O)O)C(=O)N[C@@H](CC(N)=O)C(=O)N[C@H](C(=O)N[C@@H](C)C(=O)N1CCC[C@H]1C(=O)N[C@@H](CCCNC(=N)N)C(=O)N[C@@H](CO)C(=O)N[C@@H](CCCCN)C(=O)N[C@H](C(=O)N[C@@H](CO)C(=O)N1CCC[C@H]1C(=O)N[C@@H](CCC(N)=O)C(=O)NCC(=O)N[C@@H](Cc1ccc(O)cc1)C(N)=O)[C@@H](C)CC)C(C)C)[C@@H](C)O [Example 10, ((2S,5S,11S,14S,21S)-21-(2-(2-aminoacetamido)acetamido)-5-benzyl-2-(3-guanidinopropyl)-11-((R)-1-hydroxyethyl)-3,6,9,12,18,22-hexaoxo-1,4,7,10,13,17-hexaazacyclodocosane-14-carbonyl)-L-threonyl-ADM(22-52)] (H-GGERFGT[Dab]TVQKLAHQIYQFTDKDKDNVAPRSKISPQGY-NH2; lactam 3-8)	7.39
CCCCCCCCCCCCCCCC(=O)NCCCC[C@H](N)C(=O)NCC(=O)N[C@H]1CCC(=O)NCCCC[C@@H](C(=O)N[C@H](C(=O)N[C@H](C(=O)N[C@@H](CCC(N)=O)C(=O)N[C@@H](CCCCN)C(=O)N[C@@H](CC(C)C)C(=O)N[C@@H](C)C(=O)N[C@@H](Cc2c[nH]cn2)C(=O)N[C@@H](CCC(N)=O)C(=O)N[C@H](C(=O)N[C@@H](Cc2ccc(O)cc2)C(=O)N[C@@H](CCC(N)=O)C(=O)N[C@@H](Cc2ccccc2)C(=O)N[C@H](C(=O)N[C@@H](CC(=O)O)C(=O)N[C@@H](CCCCN)C(=O)N[C@@H](CC(=O)O)C(=O)N[C@@H](CCCCN)C(=O)N[C@@H](CC(=O)O)C(=O)N[C@@H](CC(N)=O)C(=O)N[C@H](C(=O)N[C@@H](C)C(=O)N2CCC[C@H]2C(=O)N[C@@H](CCCNC(=N)N)C(=O)N[C@@H](CO)C(=O)N[C@@H](CCCCN)C(=O)N[C@H](C(=O)N[C@@H](CO)C(=O)N2CCC[C@H]2C(=O)N[C@@H](CCC(N)=O)C(=O)NCC(=O)N[C@@H](Cc2ccc(O)cc2)C(N)=O)[C@@H](C)CC)C(C)C)[C@@H](C)O)[C@@H](C)CC)C(C)C)[C@@H](C)O)NC(=O)[C@H]([C@@H](C)O)NC(=O)CNC(=O)[C@H](Cc2ccccc2)NC(=O)[C@H](CCCNC(=N)N)NC1=O [Example 12, ((2S,5S,11S,14S,23S)-23-(2-((S)-2-amino-6-palmitamidohexanamido)acetamido)-5-benzyl-2-(3-guanidinopropyl)-11-((R)-1-hydroxyethyl)-3,6,9,12,20,24-hexaoxo-1,4,7,10,13,19-hexaazacyclotetracosane-14-carbonyl)-L-threonyl-ADM(22-52)] (H-K(Palmitoyl)GERFGTKTVQKLAHQIYQFTDKDKDNVAPRSKISPQGY-NH2; lactam 3-8)	7.54
CC[C@H](C)[C@H](NC(=O)[C@H](CCC(N)=O)NC(=O)[C@H](Cc1c[nH]cn1)NC(=O)[C@H](C)NC(=O)[C@H](CC(C)C)NC(=O)[C@H](CCCCN)NC(=O)[C@H](CCC(N)=O)NC(=O)[C@@H](NC(=O)[C@@H](NC(=O)[C@@H]1CCCNC(=O)C[C@H](NC(=O)CNC(=O)CN)C(=O)N[C@@H](CCCNC(=N)N)C(=O)N[C@@H](Cc2ccccc2)C(=O)NCC(=O)N[C@@H]([C@@H](C)O)C(=O)N1)[C@@H](C)O)C(C)C)C(=O)N[C@@H](Cc1ccc(O)cc1)C(=O)N[C@@H](CCC(N)=O)C(=O)N[C@@H](Cc1ccccc1)C(=O)N[C@H](C(=O)N[C@@H](CC(=O)O)C(=O)N[C@@H](CCCCN)C(=O)N[C@@H](CC(=O)O)C(=O)N[C@@H](CCCCN)C(=O)N[C@@H](CC(=O)O)C(=O)N[C@@H](CC(N)=O)C(=O)N[C@H](C(=O)N[C@@H](C)C(=O)N1CCC[C@H]1C(=O)N[C@@H](CCCNC(=N)N)C(=O)N[C@@H](CO)C(=O)N[C@@H](CCCCN)C(=O)N[C@H](C(=O)N[C@@H](CO)C(=O)N1CCC[C@H]1C(=O)N[C@@H](CCC(N)=O)C(=O)NCC(=O)N[C@@H](Cc1ccc(O)cc1)C(N)=O)[C@@H](C)CC)C(C)C)[C@@H](C)O [Example 8, ((2S,5S,11S,14S,21S)-21-(2-(2-aminoacetamido)acetamido)-5-benzyl-2-(3-guanidinopropyl)-11-((R)-1-hydroxyethyl)-3,6,9,12,19,22-hexaoxo-1,4,7,10,13,18-hexaazacyclodocosane-14-carbonyl)-L-threonyl-ADM(22-52)] (H-GGDRFGT[Orn]TVQKLAHQIYQFTDKDKDNVAPRSKISPQGY-NH2; lactam 3-8)	7.70
CC[C@H](C)[C@H](NC(=O)[C@H](CCC(N)=O)NC(=O)[C@H](Cc1c[nH]cn1)NC(=O)[C@H](C)NC(=O)[C@H](CC(C)C)NC(=O)[C@H](CCCCN)NC(=O)[C@H](CCC(N)=O)NC(=O)[C@@H](NC(=O)[C@@H](NC(=O)[C@@H]1CCSC[C@H](NC(=O)CNC(=O)CN)C(=O)N[C@@H](CCCNC(=N)N)C(=O)N[C@@H](Cc2ccccc2)C(=O)NCC(=O)N[C@@H]([C@@H](C)O)C(=O)N1)[C@@H](C)O)C(C)C)C(=O)N[C@@H](Cc1ccc(O)cc1)C(=O)N[C@@H](CCC(N)=O)C(=O)N[C@@H](Cc1ccccc1)C(=O)N[C@H](C(=O)N[C@@H](CC(=O)O)C(=O)N[C@@H](CCCCN)C(=O)N[C@@H](CC(=O)O)C(=O)N[C@@H](CCCCN)C(=O)N[C@@H](CC(=O)O)C(=O)N[C@@H](CC(N)=O)C(=O)N[C@H](C(=O)N[C@@H](C)C(=O)N1CCC[C@H]1C(=O)N[C@@H](CCCNC(=N)N)C(=O)N[C@@H](CO)C(=O)N[C@@H](CCCCN)C(=O)N[C@H](C(=O)N[C@@H](CO)C(=O)N1CCC[C@H]1C(=O)N[C@@H](CCC(N)=O)C(=O)NCC(=O)N[C@@H](Cc1ccc(O)cc1)C(N)=O)[C@@H](C)CC)C(C)C)[C@@H](C)O [Example 15, ((4S,7S,13S,16S,19R)-19-(2-(2-aminoacetamido)acetamido)-13-benzyl-16-(3-guanidinopropyl)-7-((R)-1-hydroxyethyl)-6,9,12,15,18-pentaoxo-1-thia-5,8,11,14,17-pentaazacycloicosane-4-carbonyl)-L-threonyl-ADM(22-52)] (H-GGCRFGT[Abu(4-yl)]TVQKLAHQIYQFTDKDKDNVAPRSKISPQGY-NH2; thioether 3-8)	8.48
